From ChEMBL document CHEMBL5329182, “Design, Synthesis, anti-inflammatory activity Evaluation, preliminary exploration of the Mechanism, molecule Docking, and structure-activity relationship analysis of batatasin III analogs” (Bioorg Med Chem Lett, 2023)

Legend:
[1] = Cytotoxicity against mouse RAW264.7 cells assessed as cell survival rate at 50 uM by MTT assay relative to control; assay type: toxicity, cell-based; details: read-out: Activity
[2] = system: RAW264.7; experiment: Antiinflammatory activity against LPS-stimulated mouse RAW264.7 cells assessed as NO emission at 50 uM (reference value: 20.56 +/-0.06%); assay type: functional
[3] = system: RAW264.7; experiment: Antiinflammatory activity against mouse RAW264.7 cells assessed as inhibition of NO production at 50 uM relative to control; assay type: functional
[4] = system: RAW264.7; experiment: Antiinflammatory activity against mouse RAW264.7 cells assessed as inhibition of NO release; assay type: functional, cell-based
[5] = Cytotoxicity against mouse RAW264.7 cells assessed as reduction in cell survival by MTT assay; assay type: toxicity, cell-based
[6] = Cytotoxicity against mouse RAW264.7 cells assessed as cell survival rate at 20 uM by MTT assay relative to control; assay type: toxicity, cell-based; details: read-out: Activity
[7] = system: RAW264.7; experiment: Antiinflammatory activity against LPS-stimulated mouse RAW264.7 cells assessed as NO emission at 20 uM (reference value: 20.56 +/-0.06%); assay type: functional
[8] = system: RAW264.7; experiment: Antiinflammatory activity against mouse RAW264.7 cells assessed as inhibition of NO production at 20 uM relative to control; assay type: functional
[9] = system: RAW264.7; experiment: Antiinflammatory activity against LPS-stimulated mouse RAW264.7 cells assessed as reduction in iNOS protein expression by Western blot analysis; assay type: functional, cell-based; details: dose 5-20 µM
[10] = biological target: Transcription factor p65 (Mus musculus) (UniProt Q04207); experiment: Inhibition of p65 phosphorylation in LPS-stimulated mouse RAW264.7 cells by Western blot analysis; assay type: cell-based; details: dose 5-20 µM
Sequence of Transcription factor p65 (Mus musculus) (Q04207 whole entry): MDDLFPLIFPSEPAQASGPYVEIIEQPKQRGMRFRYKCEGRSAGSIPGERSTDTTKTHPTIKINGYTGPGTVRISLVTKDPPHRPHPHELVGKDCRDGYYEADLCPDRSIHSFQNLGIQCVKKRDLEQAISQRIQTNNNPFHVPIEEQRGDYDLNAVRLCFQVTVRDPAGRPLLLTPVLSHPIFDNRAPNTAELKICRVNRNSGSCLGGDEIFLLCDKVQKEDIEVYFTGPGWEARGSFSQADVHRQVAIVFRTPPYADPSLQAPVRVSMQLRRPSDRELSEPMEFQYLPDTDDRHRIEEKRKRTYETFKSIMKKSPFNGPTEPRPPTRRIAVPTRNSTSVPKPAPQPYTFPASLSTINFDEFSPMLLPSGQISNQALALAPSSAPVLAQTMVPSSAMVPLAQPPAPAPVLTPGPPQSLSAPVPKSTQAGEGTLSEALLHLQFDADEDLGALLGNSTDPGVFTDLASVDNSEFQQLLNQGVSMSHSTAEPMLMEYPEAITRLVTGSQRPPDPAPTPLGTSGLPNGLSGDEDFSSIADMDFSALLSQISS

[11] = system: RAW264.7; experiment: Antiinflammatory activity against LPS-stimulated mouse RAW264.7 cells assessed as reduction in beta-catenin protein expression by Western blot analysis; assay type: functional, cell-based; details: dose 5-20 µM

Row | Structure (SMILES) | IC50 [4] | inhibition [10] | viability at 50 µM [1] | Activity [2] | inhibition at 50 µM [3] | CC50 [5] | viability at 20 µM [6] | Activity [7] | inhibition at 20 µM [8] | Activity [9] | Activity [11]
1 | COc1cc(CCc2ccc(C(C)(C)C)cc2)cc(OC)c1 | > 50 µM | – | 106% | 17.5 µM | 14.9% | – | – | – | – | – | –
2 | COc1cc(CCc2cccc(C(F)(F)F)c2)cc(OC)c1 | > 50 µM | – | 103% | 16.54 µM | 19.6% | – | – | – | – | – | –
3 | COc1cccc(/C=C/c2cc(OC)cc(OC)c2)c1 | > 50 µM | – | 97.2% | 16.82 µM | 18.2% | – | – | – | – | – | –
4 | COc1cc(CCc2ccccc2)cc(OC)c1 | > 50 µM | – | 99.5% | 19.3 µM | 6.16% | – | – | – | – | – | –
5 | COc1cc(/C=C/c2cccc(Cl)c2)cc(OC)c1 | > 50 µM | – | 97.8% | 18.96 µM | 7.82% | – | – | – | – | – | –
6 | Oc1cc(O)cc(CCc2ccccc2)c1 [DIHYDROPINOSYLVIN] | > 50 µM | – | 102% | 16.86 µM | 18% | – | – | – | – | – | –
7 | COc1cc(/C=C/c2ccc(C(C)(C)C)cc2)cc(OC)c1 | > 50 µM | – | 99.3% | 17.68 µM | 14% | – | – | – | – | – | –
8 | COc1cc(CCc2ccco2)cc(OC)c1 | > 50 µM | – | 103% | 21.18 µM | -2.98% | – | – | – | – | – | –
9 | COc1cc(/C=C/c2cccc([N+](=O)[O-])c2)cc(OC)c1 | > 50 µM | – | 104% | 17.5 µM | 14.9% | – | – | – | – | – | –
10 | COc1cc(O)cc(CCc2cccc(O)c2)c1 [BATATASIN III] | > 50 µM | – | 106% | 16.14 µM | 21.5% | – | – | – | – | – | –
11 | COc1cc(/C=C/c2cccc(C#N)c2)cc(OC)c1 | > 50 µM | – | 114% | 18.22 µM | 11.4% | – | – | – | – | – | –
12 | COc1cc(/C=C/c2cccnc2)cc(OC)c1 | > 50 µM | – | 97.7% | 15.94 µM | 22.5% | – | – | – | – | – | –
13 | C[C@@H]1C[C@H]2[C@@H]3CCC4=CC(=O)C=C[C@]4(C)[C@@]3(F)[C@@H](O)C[C@]2(C)[C@@]1(O)C(=O)CO [DEXAMETHASONE] | > 50 µM | – | 107% | 15.05 µM | 26.9% | – | – | – | – | – | –

The next lines start with results.

Row | IC50 [4] | inhibition [10] | Structure (SMILES) | viability at 50 µM [1] | Activity [2] | inhibition at 50 µM [3] | CC50 [5] | viability at 20 µM [6] | Activity [7] | inhibition at 20 µM [8] | Activity [9] | Activity [11]
14 | > 50 µM | – | COc1cc(CCc2cc(C(C)(C)C)cc(C(C)(C)C)c2)cc(OC)c1 | 114% | 16.82 µM | 18.2% | – | – | – | – | – | –
15 | > 50 µM | – | Oc1cc(O)cc(CCc2cccnc2)c1 | 98.9% | 18.06 µM | 12.2% | – | – | – | – | – | –
16 | 13 µM | Dose-Dependent Effect | CC(C)(C)c1cc(CCc2cc(O)cc(O)c2)cc(C(C)(C)C)c1 | – | – | – | 34.3 µM | 99.1% | 10.08 µM | 51% | Dose-Dependent Effect | Dose-Dependent Effect
17 | 44.5 µM | – | O=[N+]([O-])c1cccc(/C=C/c2cc(O)cc(O)c2)c1 | 104% | 15.32 µM | 25.5% | – | – | – | – | – | –
18 | > 50 µM | – | COc1cc(CCc2cccc(C#N)c2)cc(OC)c1 | 105% | 21.8 µM | -5.99% | – | – | – | – | – | –
19 | > 50 µM | – | COc1cc(CCc2cccnc2)cc(OC)c1 | 97.8% | 17.72 µM | 13.8% | – | – | – | – | – | –
20 | > 50 µM | – | COc1cc(/C=C/c2cc(C(C)(C)C)cc(C(C)(C)C)c2)cc(OC)c1 | 104% | 17.02 µM | 17.2% | – | – | – | – | – | –
21 | > 50 µM | – | COc1cc(/C=C/c2cccc(C(F)(F)F)c2)cc(OC)c1 | 109% | 17.66 µM | 14.1% | – | – | – | – | – | –
22 | 54 µM | – | Oc1cccc(/C=C/c2cc(O)cc(O)c2)c1 | 110% | 15.88 µM | 22.8% | – | – | – | – | – | –
23 | 23.7 µM | – | CC(C)(C)c1ccc(CCc2cc(O)cc(O)c2)cc1 | 106% | 9.74 µM | 52.6% | – | – | – | – | – | –
24 | 58.3 µM | – | COc1cc(CCc2cccc(C)c2)cc(OC)c1 | 109% | 16.28 µM | 20.9% | – | – | – | – | – | –
25 | 48.2 µM | – | Oc1cccc(CCc2cc(O)cc(O)c2)c1 | 110% | 14.12 µM | 31.4% | – | – | – | – | – | –
26 | 55.4 µM | – | COc1cc(CCc2cccc(N)c2)cc(OC)c1 | 104% | 15.2 µM | 26.1% | – | – | – | – | – | –
